# Structures can show the parent of a compound that is named as a salt.
# Legend:
# in vivo = conditions: both, beagle, dog, plasma, iv, 4 mg/animal
# [1] = Solubility evaluation of nalmefene in solvent systems; type: physicochemical
# Protocol: In addition, the solubility of nalmefene in varying concentrations was evaluated using different combinations of solvent systems. The solvent systems included combinations of polar solvents with different surface active agents. The solvent systems provided different volatilization rates. […] Exemplary surface active agents included: Tween 20, Tween 80, Gelucire® 34/44, Kolliphor® HS 15, Solutol® NF, Labrafil® M2125 CS and Labrafil® M1944 CS.
# [2] = Pharmacokinetic study of nalmefene buccal films and nalmefene IV in beagle dogs (plasma, LC/MS, noncompartmental analysis); conditions: majority of concentrations, after buccal film or IV nalmefene, lower limit of quantitation 0.1 ng/mL
# [3] = cited from earlier work
# [4] = Solubility of nalmefene HCl in polar solvents at 100 mg/mL; type: physicochemical; conditions: test concentration 100 mg/mL
# Description: Ethanol, propylene glycol, glycerol, methanol, and water were considered.
compound,measurement,setting,value
"C=C1CC[C@@]2(O)[C@H]3Cc4ccc(O)c5c4[C@@]2(CCN3CC2CC2)[C@H]1O5 [nalmefene, 6-methylene-6-deoxy-N-cyclopropylmethyl-14 hydroxydihydronormorphine]",Vd,in vivo,2.77 L/kg
same,clearance,in vivo,46.2 mL/min/kg
same,half-life,in vivo,1.34 h
same,Solubility observation,"[1]; Ethanol:Water 75:25, nalmefene 200 mg/mL","Completely Soluble,"
same,Solubility observation,"[1]; Ethanol:Water:Gelucire 34/14 75:20:5, nalmefene 200 mg/mL","Completely Soluble,"
same,Solubility observation,"[1]; Ethanol:Water:Glycerine 70:20:10, nalmefene 300 mg/mL","Completely Soluble,"
same,Solubility observation,"[1]; Ethanol:Water:Labrafil M1944 CS 80:17.5:2.5, nalmefene 200 mg/mL","Completely Soluble,"
same,Solubility observation,"[1]; Ethanol:Water:Labrafil M2125 OS 80:17.5:2.5, nalmefene 200 mg/mL","Completely Soluble,"
same,Solubility observation,"[1]; Ethanol:Water:Propylene Glycol 68:22:10, nalmefene 350 mg/mL","Completely Soluble,"
same,Solubility observation,"[1]; Ethanol:Water:Propylene Glycol 82.5:12.5:5, nalmefene 200 mg/mL","Completely Soluble,"
same,Solubility observation,"[1]; Ethanol:Water:Propylene Glycol:Tween 80 70:25:4:1, nalmefene 350 mg/mL","Completely Soluble,"
same,Solubility observation,"[1]; Ethanol:Water:Tween 20 75:24.5:0.5, nalmefene 250 mg/mL","Completely Soluble,"
C=C1CC[C@@]2(O)[C@H]3Cc4ccc(O)c5c4[C@@]2(CCN3)[C@H]1O5 [nornalmefene],Nornalmefene (metabolite) plasma concentrations,[2],below the limit of quantitation
C=C1CC[C@@]2(O)[C@H]3Cc4ccc(O)c5c4[C@@]2(CCN3CC2CC2)[C@H]1O5 [Nalmefene hydrochloride],pKa1,[3]; amine,8.38
same,log P,[3],2.66
same,Solubility in water,[3]; freely soluble,up to 130 mg/mL
same,pKa2,[3]; phenol,10.00
same,Solubility in chloroform,[3]; slightly soluble,up to 0.13 mg/mL
C=C1CC[C@@]2(O)[C@H]3Cc4ccc(O)c5c4[C@@]2(CCN3CC2CC2)[C@H]1O5 [Nalmefene HCl Monohydrate],Solubility of Nalmefene HCl Monohydrate,[4]; Ethanol NF,Partially
same,Solubility of Nalmefene HCl Monohydrate,[4]; Glycerol USP,Partially
same,Solubility of Nalmefene HCl Monohydrate,[4]; Methanol,Highly
same,Solubility of Nalmefene HCl Monohydrate,[4]; Propylene glycol USP,Partially
same,Solubility of Nalmefene HCl Monohydrate,[4]; Water NF,Moderately high

# Source: US11318107B2, “Pharmaceutical active-containing film delivery device for oral transmucosal administration” (Avior, Inc., priority 2019, dated 2022)
